US20230016424A1, “HYBRID AMIDE DERIVATIVES OF AMPHOTERICIN B” (The Board of Trustees of the University of Illinois, priority 2019, published 2023)
In brackets after ≈: the same amount, converted by molar mass. Several values for one entry are separate records, joined by “and”; a condition that tells them apart may be missing. Equal entries are not always repeated.

What was measured:
[1] = test system: C. albicans SN250, C. albicans, C. krusei, C. glabrata, C. tropicalis, A. fumigatus 91, 1163, 1100; experiment: Average MIC over the tested strains; format: cell-based; set-up: Avg. MIC of AmB amide: unit not given here; conditions: for MIC: average over the 8 listed strains; for Avg. MIC of AmB amide: value of the corresponding C16 amide of AmB
A. calldoustus = experiment: MIC against moulds; format: cell-based; conditions: 6 isolates
A. tubingensis = experiment: MIC against moulds; format: cell-based; conditions: 6 isolates
Coccidioides immitis = experiment: microbe, parasite or virus in culture; format: cell-based
[2] = test system: P. variotii MYA-3630 (QC); experiment: MIC against moulds; format: cell-based; conditions: 5 isolates
Licht. Ramosa = experiment: MIC against moulds; format: cell-based; conditions: 6 isolates
Talaromyces marneffei = experiment: MIC against moulds; format: cell-based; conditions: 6 isolates
Candida krusei = experiment: MIC against yeasts; format: cell-based; conditions: 2 isolates
Candida parapsilosis = experiment: MIC against yeasts; format: cell-based; conditions: 8 isolates
Sporothrix schenckii = experiment: MIC against rare moulds resistant to AmB; format: cell-based; conditions: 6 isolates
Scedosporium boydii = experiment: MIC against rare moulds resistant to AmB; format: cell-based; conditions: 6 isolates
Lomentospora prolificans = experiment: MIC against rare moulds resistant to AmB; format: cell-based; conditions: 6 isolates
[3] = Liver microsome stability, summary for all species; format: in vitro ADME; conditions: Mouse, rat, dog, monkey, human: All species
Method: Working Compound solution: 10 uM in 50 mM potassium phosphate buffer with 9% MeOH and 1% DMSO
Microsome solution: working concentration 0.625 mg/ml
Stopping solution: Cold ACN with 200 ng/ml Tolbutamide and 200 ng/ml Labetalol (4° C.)
Procedure: In the well plates (T5, T10, T20, T30, T60, NCF60 (no cofactor 60)) 10 uL of the compound/control working solution was added (except T0 and matric blank) followed by microsome solution (80 uL) and the mixture was incubated at 37 C for about 10 mins. A solution of potassium phosphate (10 ul of 50 mM) was added to NCF60 well, incubated at 37 C and time counting started. After prewarming 10 ul of NADPH regenerating solution was added to each plate to start the reaction. At different time point 300 uL/well of stopping solution to terminate the reaction. The sampling plates were shaken for 10 mins and the centrifuged for 20 mins at 4000 rpm. The supernatant was half diluted with ultra pure water and the analyzed using LCMS.

human erythrocytes = experiment: MHC hemolysis assay; format: cell-based
Method: MHC (FIG. 21B): The protocol for the hemolysis assay was adapted from the report of Paquet and coworkers (Chem. Eur. J. 2008, 14, 2465-2481). Whole human blood (sodium heparin) was purchased from Bioreclamation LLC (Westbury, N.Y.) and stored at 4° C. and used within two days of receipt. To a 2.0 mL eppendorf tube, 1 mL of whole human blood was added and centrifuged at 10,000 g for 2 minutes. The supernatant was removed and the erythrocyte pellet was washed with 1 mL of sterile saline and centrifuged at 10,000 g for 2 minutes. The saline wash was repeated for a total of three washes. The erythrocyte pellet was suspended in 1 mL of RBC buffer (10 mM NaH2PO4, 150 mM NaCl, 1 mM MgCl2, pH 7.4) to form the erythrocyte stock suspension.
Compounds were prepared as >15 mM stock solutions in DMSO and serially diluted to the following concentrations with DMSO: 7689, 5126, 2563, 2050, 1538, 1025, 769, 513, 384, 256, 205, 154, 103, 77, 51, 26 μM. To a 0.2 mL PCR tube, 24 μL of RBC buffer and 1 μL of compound stock solution were added, which gave final concentrations of […]. Positive and negative controls were prepared by adding 1 μL of DMSO to MilliQ water or RBC buffer, respectively to 0.2 mL PCR tube. To each PCR tube, 0.63 μL of the erythrocyte stock suspension was added and mixed by inversion. The samples were incubated at 37° C. for 2 hours. The samples were mixed by inversion and centrifuged at 10,000 g for 2 minutes. 15 μL of the supernatant from each sample was added to a 384-well place. Absorbances were read at 540 nm using a Biotek H1 Synergy Hybrid Reader (Wanooski, Vt.). Experiments were performed in triplicate and the reported MHC represents an average of three experiments.

[4] = UV-Vis sterol binding assay
Method: However, an alternative method was developed for reproducible formation of homogenous AmB and C2′epiAmB sterol sponge aggregates in vitro. Using these preparations, a quantitative UV-Vis and Principle Component (PCA) based assay for determining the apparent KDs for the binding of AmB and C2′epiAmB to ergosterol and cholesterol (FIGS. 5A-5D) was developed.
UV-Vis Binding Assay (FIG. 21A): The protocol for the sterol binding assay (UV-Vis) was developed in our lab. Compounds were dissolved in DMSO at a final concentration of 1 mM. Sterol were first dissolved in CHCl3 (>200 mM) and then diluted to 1 mM concentration with DMSO. To synthesize the complex 1 ul of compound solution was taken in a clean eppendorf tube (2 ml) and sterol solution (volume depends on the stoichiometry) was added to it and the volume was made up to 20 ul with DMSO. 0.98 ml of PBS buffer was added to the Eppendorf tube and mixed properly. The absorbance of the solution was measured after 30 mins of incubation.

moulds (3 strains) = experiment: MICavg moulds (3 strains); format: cell-based; set-up: unit not given beside the values
[5] = hemolysis, human erythrocytes, 37° C. 2 hours
[6] = Table 12, C16 amides of C2'epiAmB
[7] = Table 13, C16 amides of C2’epiAmB

| SMILES | MIC [1] | MIC (A. calldoustus) | MIC (Licht. Ramosa) | MHC (human erythrocytes; [5]) | MHC (human erythrocytes; summary table, unit not given) | Binds Cholesterol [4] | Cholesterol Binding [4] | MICavg moulds (3 strains) (moulds (3 strains)) | Average MIC [1, 6] | Average MIC [1, 7] | Avg. MIC of AmB amide ([1]; not of the C2’epi compound) | MIC (A. tubingensis) | MIC Coccidioides immitis (Coccidioides immitis) | MIC [2] | MIC (Talaromyces marneffei) | MIC (Candida krusei) | MIC (Candida parapsilosis) | MIC (Sporothrix schenckii) | MIC (Scedosporium boydii) | MIC (Lomentospora prolificans) | other results |
| --- | --- | --- | --- | --- | --- | --- | --- | --- | --- | --- | --- | --- | --- | --- | --- | --- | --- | --- | --- | --- | --- |
| C[C@@H]1[C@H](O)[C@@H](C)/C=C/C=C/C=C/C=C/C=C/C=C/C=C/[C@H](OC2O[C@H](C)[C@@H](O)[C@H](N)[C@@H]2O)C[C@@H]2O[C@](O)(C[C@@H](O)C[C@@H](O)[C@H](O)CC[C@@H](O)C[C@@H](O)CC(=O)O[C@H]1C)C[C@H](O)[C@H]2C(=O)O (stereo partly shown) [AmB, Amphotericin B] | 0.642 µM and 0.44 µM | 1.5 µM (≈ 1.39 µg/mL) | 0.15 µM (≈ 0.139 µg/mL) | 8.4 µM | 8.4 | Yes | Yes | 0.92 | – | – | – | – | – | – | – | – | – | – | – | – | MIC (A. tubingensis; Aspergillus tubingensis): 0.125 µM (≈ 0.116 µg/mL); MIC (Coccidioides immitis; Coccidioides immitis, read-out: MIC Coccidioides immitis): 0.125 µM (≈ 0.116 µg/mL); MIC ([2]; Paecilomyces variotii): 1 µM (≈ 0.924 µg/mL); MIC (Talaromyces marneffei; Talaromyces marneffei): 0.09 µM (≈ 0.0832 µg/mL); MIC (Candida krusei; Pichia kudriavzevii): 1 µM (≈ 0.924 µg/mL); MIC (Candida parapsilosis; Lodderomyces parapsilosis): 1.1 µM (≈ 1.02 µg/mL); MIC (Sporothrix schenckii; Sporothrix schenckii): 4 µM (≈ 3.7 µg/mL); MIC (Scedosporium boydii; Scedosporium boydii): > 16 µM; MIC (Lomentospora prolificans; Lomentospora prolificans): > 16 µM; half-life at 1 µM ([3]; liver microsomes, read-out: Liver microsome T1/2): > 2.42 h |
| CC1C=CC=CC=CC=CC=CC=CC=CC(OC2OC(C)C(O)C(N)C2O)CC2OC(O)(CC(O)CC(O)C(O)CCC(O)CC(O)CC(=O)OC(C)C(C)C1O)CC(O)C2C(=O)NCCO (stereo not shown) [Compound BA] | 0.727 µM | 1.67 µM (≈ 1.62 µg/mL) | 1.1 µM (≈ 1.06 µg/mL) | >500 µM | >500 | No | No | 1.3 | 1.031 µM | 1030 µM | 0.18 | 0.92 µM (≈ 0.89 µg/mL) | 0.29 µM (≈ 0.28 µg/mL) | 2.7 µM (≈ 2.61 µg/mL) | 0.15 µM (≈ 0.145 µg/mL) | 4 µM (≈ 3.87 µg/mL) | 2.5 µM (≈ 2.42 µg/mL) | 6 µM (≈ 5.8 µg/mL) | >16 µM | >16 µM | Average MIC for AmB analogue ([1]; value of the corresponding AmB analogue, not of the C2’epi compound): 0.328 μM; Liver microsome T1/2 [3]: >2.42 h |
| CC1C=CC=CC=CC=CC=CC=CC=CC(OC2OC(C)C(O)C(N)C2O)CC2OC(O)(CC(O)CC(O)C(O)CCC(O)CC(O)CC(=O)OC(C)C(C)C1O)CC(O)C2C(=O)NCCF (stereo not shown) [Compound BM] | – | 1.5 µM (≈ 1.45 µg/mL) | 1 µM (≈ 0.969 µg/mL) | – | >100 | No | – | 1.7 | 0.844 µM | 840 µM | 0.39 | 0.92 µM (≈ 0.892 µg/mL) | 0.23 µM (≈ 0.223 µg/mL) | 2.67 µM (≈ 2.59 µg/mL) | 0.2 µM (≈ 0.194 µg/mL) | 2 µM (≈ 1.94 µg/mL) | 2.4 µM (≈ 2.33 µg/mL) | 6.67 µM (≈ 6.46 µg/mL) | >16 µM | >16 µM | Liver microsome T1/2 [3]: >2.42 h |
